Source: US12527849B2, “Apparatus for determining administration form of a composition of an engineered virus-based nanoparticle for a treatment of an autoimmune condition” (Diamante Srl, priority 2021, dated 2026)

System: NOD mice
Experiment: Diabetes-free survival of NOD mice (Kaplan-Meier analysis, log-rank test)
Assay type: in vivo
Settings: two i.p. treatments, 2 weeks between doses, 50 μg per mouse
Text: With continued reference to FIG. 1, as another non-limiting example, administration 116 of composition of the engineered virus-based nanoparticle for a treatment of an autoimmune disease may be done to nonobese diabetic (NOD) mice. In another non-limiting example, administration 116 of composition of the engineered virus-based nanoparticle for a treatment of an autoimmune disease may be done to any animal disclosed in this disclosure, such as but not limited to a human. Four-week-old female NOD mice may be obtained from Charles River Laboratories and may be housed under specific pathogen-free conditions in the animal facility at the University of Perugia, with ad libitum access to water and food. NOD mice may be randomly subdivided into four groups. In group 1 (n=18), CPMV·p524opt [50 μg per mouse, resuspended in 100 μl of phosphate-buffered saline (PBS)] may be injected twice intraperitoneally, with 2 weeks between doses. […] Mice may be monitored for the appearance of clinical signs of diabetes and may be euthanized when the disease was confirmed by glucosuria. […]
With continued reference to FIG. 1, in some embodiments, processor 104 may determine critical administration 124 as a function of a statistical comparison between administration groups 132. […] As a non-limiting example, a Kaplan-Meier analysis may be calculated using the following formula: […]

p524opt: p524 sequence adjusted to a pI of 8.59 (SEQ ID NO. 2), synthetic peptide given with IFA (DSRLSKVAPVIKARMMED)
protection from the onset of diabetes (in words): no protective effect
